Assays:
bedstraw = assay: Test B pre/postemergence bedstraw; assay type: in vivo, Galium aparine
Outline: (§1)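 Test chemicals in a non-phytotoxic solvent mixture with surfactant were sprayed preemergence onto planted seeds and postemergence onto plants 2 to 18 cm tall (1- to 4-leaf stage). After twelve to sixteen days in a greenhouse, injury was visually rated against untreated controls from 0 (no effect) to 10 (complete control).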

blackgrass = assay: Test B pre/postemergence blackgrass; assay type: in vivo, Alopecurus myosuroides
Outline: as §1

surinam grass = assay: Test B pre/postemergence surinam grass; assay type: in vivo, Brachiaria decumbens
Outline: as §1

corn = assay: Test B pre/postemergence corn; assay type: in vivo, Zea mays
Outline: as §1

crabgrass = assay: Test B pre/postemergence crabgrass; assay type: in vivo, Digitaria sanguinalis
Outline: as §1

giant foxtail = assay: Test B pre/postemergence giant foxtail; assay type: in vivo, Setaria faberii
Outline: as §1

morningglory = assay: Test B pre/postemergence morningglory; assay type: in vivo, Ipomoea hederacea
Outline: as §1

pigweed = assay: Test B pre/postemergence pigweed; assay type: in vivo, Amaranthus retroflexus
Outline: as §1

rape = assay: Test B pre/postemergence rape; assay type: in vivo, Brassica napus
Outline: as §1

sugar beet = assay: Test B pre/postemergence sugar beet; assay type: in vivo, Beta vulgaris
Outline: as §1

wheat = assay: Test B pre/postemergence wheat; assay type: in vivo, Triticum aestivum
Outline: as §1

wild oat = assay: Test B pre/postemergence wild oat; assay type: in vivo, Avena fatua
Outline: as §1

purple nutsedge = assay: Test B pre/postemergence purple nutsedge; assay type: in vivo, Cyperus rotundus
Outline: as §1

rice = assay: Test B flood test rice; assay type: in vivo, Oryza sativa
Outline: (§2)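 Flood test on plants grown to the 2-leaf stage; treated plants kept in greenhouse twelve to sixteen days, then visually rated against controls on a 0 (no effect) to 10 (complete control) scale.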

smallflower flatsedge = assay: Test B flood test smallflower flatsedge; assay type: in vivo, Cyperus difformis
Outline: as §2

bamyardgrass = assay: Test B flood test barnyardgrass; assay type: in vivo, Echinochloa crus-galli
Outline: as §2

[1] = Preemergence, Rate 31 g/ha, visual rating, scale 0 to 10 (0 no effect, 10 complete control)
[2] = Preemergence, Rate 62 g/ha, scale of 0 to 10 where 0 is no effect and 10 is complete control
[3] = Preemergence, Rate 250 g/ha, scale of 0 to 10 where 0 is no effect and 10 is complete control
[4] = Rate 31 g/ha, Postemergence, scale 0 to 10
[5] = Rate 62 g/ha, Postemergence, scale of 0 to 10 where 0 is no effect and 10 is complete control
[6] = Rate 125 g/ha, Postemergence, scale 0 to 10
[7] = Rate 125 g/ha, Preemergence, scale of 0 to 10 where 0 is no effect and 10 is complete control
[8] = Rate 31 g/ha, Pre-emergence section (flood test species), scale 0 to 10
[9] = Rate 62 g/ha, headed Pre-emergence (flood test species), scale 0 to 10 (0 no effect, 10 complete control)
[10] = Rate 125 g/ha, Pre-emergence, flood test species, scale 0 to 10 where 0 is no effect and 10 is complete control
[11] = Rate 250 g/ha, Pre-emergence, flood-test species, scale 0 to 10, 0 is no effect, 10 is complete control

CC(=O)Cn1c(=O)on(C(=O)N(c2ccc(F)cc2)C(C)C)c1=O [Compound 217]
1: Giant foxtail plant response rating (giant foxtail; [5])
10: Giant foxtail plant response rating (giant foxtail; [3]) | Redroot pigweed plant response rating (pigweed; [3])
2: Crabgrass plant response rating (crabgrass; [6]) | Giant foxtail plant response rating (giant foxtail; [6]) | Wheat plant response rating (wheat; [6]) | Wild oats plant response rating (wild oat; [3])
7: B. signalgrass plant response rating (surinam grass; Rate 125 g/ha, Postemergence, scale 0 (no effect) to 10 (complete control)) | Plant response rating (0 to 10; 0 is no effect, 10 is complete control), B. signalgrass (surinam grass; Rate 250 g/ha, Postemergence) | Plant response rating (0 to 10; 0 is no effect, 10 is complete control), Giant foxtail (giant foxtail; Rate 250 g/ha, Postemergence)
4: Crabgrass plant response rating (crabgrass; [7]) | Rape plant response rating (rape; [3])
6: Blackgrass plant response rating (blackgrass; [2]) | Blackgrass plant response rating (blackgrass; [6]) | Blackgrass plant response rating (blackgrass; [7]) | Plant response rating (0 to 10; 0 is no effect, 10 is complete control), Blackgrass (blackgrass; Rate 250 g/ha, Postemergence) | Giant foxtail plant response rating (giant foxtail; [2])
5: Redroot pigweed plant response rating (pigweed; [7])
3: Blackgrass plant response rating (blackgrass; [5]) | Crabgrass plant response rating (crabgrass; [2]) | Plant response rating (0 to 10; 0 is no effect, 10 is complete control), Crabgrass (crabgrass; Rate 250 g/ha, Postemergence) | Giant foxtail plant response rating (giant foxtail; [1]) | Wheat plant response rating (wheat; [7]) | Plant response rating (0 to 10; 0 is no effect, 10 is complete control), Wheat (wheat; Rate 250 g/ha, Postemergence)
8: Blackgrass plant response rating (blackgrass; [3]) | Crabgrass plant response rating (crabgrass; [3]) | Giant foxtail plant response rating (giant foxtail; [7]) | Wheat plant response rating (wheat; [3])
0: Bedstraw plant response rating (bedstraw; [1]) | Bedstraw plant response rating (bedstraw; [2]) | Bedstraw plant response rating (bedstraw; [3]) | Bedstraw plant response rating (bedstraw; [4]) | Bedstraw plant response rating (bedstraw; [5]) | Bedstraw plant response rating (bedstraw; [6]) | Bedstraw plant response rating (bedstraw; [7]) | Plant response rating (0 to 10; 0 is no effect, 10 is complete control), Bedstraw (bedstraw; Rate 250 g/ha, Postemergence) | Blackgrass plant response rating (blackgrass; [1]) | Blackgrass plant response rating (blackgrass; [4]) | B. signalgrass plant response rating (surinam grass; [1]) | B. signalgrass plant response rating (surinam grass; [2]) | B. signalgrass plant response rating (surinam grass; Preemergence, Rate 250 g/ha, scale 0 to 10, 0 is no effect, 10 is complete control) | B. signalgrass plant response rating (surinam grass; [4]) | B. signalgrass plant response rating (surinam grass; [5]) | B. signalgrass plant response rating (surinam grass; [7]) | Corn plant response rating (corn; [1]) | Corn plant response rating (corn; [2]) | Corn plant response rating (corn; [3]) | Corn plant response rating (corn; [4]) | Corn plant response rating (corn; [5]) | Corn plant response rating (corn; [6]) | Corn plant response rating (corn; [7]) | Plant response rating (0 to 10; 0 is no effect, 10 is complete control), Corn (corn; Rate 250 g/ha, Postemergence) | Crabgrass plant response rating (crabgrass; [1]) | Crabgrass plant response rating (crabgrass; [4]) | Crabgrass plant response rating (crabgrass; [5]) | Giant foxtail plant response rating (giant foxtail; [4]) | Morningglory plant response rating (morningglory; [1]) | Morningglory plant response rating (morningglory; [2]) | Morningglory plant response rating (morningglory; [3]) | Morningglory plant response rating (morningglory; [4]) | Morningglory plant response rating (morningglory; [5]) | Morningglory plant response rating (morningglory; [6]) | Morningglory plant response rating (morningglory; [7]) | Plant response rating (0 to 10; 0 is no effect, 10 is complete control), Morningglory (morningglory; Rate 250 g/ha, Postemergence) | Redroot pigweed plant response rating (pigweed; [1]) | Redroot pigweed plant response rating (pigweed; [2]) | Redroot pigweed plant response rating (pigweed; [4]) | Redroot pigweed plant response rating (pigweed; [5]) | Redroot pigweed plant response rating (pigweed; [6]) | Plant response rating (0 to 10; 0 is no effect, 10 is complete control), Redroot pigweed (pigweed; Rate 250 g/ha, Postemergence) | Rape plant response rating (rape; [1]) | Rape plant response rating (rape; [2]) | Rape plant response rating (rape; [4]) | Rape plant response rating (rape; [5]) | Rape plant response rating (rape; [6]) | Rape plant response rating (rape; [7]) | Plant response rating (0 to 10; 0 is no effect, 10 is complete control), Rape (rape; Rate 250 g/ha, Postemergence) | Sugarbeets plant response rating (sugar beet; [1]) | Sugarbeets plant response rating (sugar beet; [2]) | Sugarbeets plant response rating (sugar beet; [3]) | Sugarbeets plant response rating (sugar beet; [5]) | Sugarbeets plant response rating (sugar beet; [6]) | Sugarbeets plant response rating (sugar beet; [7]) | Plant response rating (0 to 10; 0 is no effect, 10 is complete control), Sugarbeets (sugar beet; Rate 250 g/ha, Postemergence) | Wheat plant response rating (wheat; [1]) | Wheat plant response rating (wheat; [2]) | Wheat plant response rating (wheat; [5]) | Wild oats plant response rating (wild oat; [1]) | Wild oats plant response rating (wild oat; [2]) | Wild oats plant response rating (wild oat; [5]) | Wild oats plant response rating (wild oat; [6]) | Wild oats plant response rating (wild oat; [7]) | Plant response rating (0 to 10; 0 is no effect, 10 is complete control), Wild oats (wild oat; Rate 250 g/ha, Postemergence) | Nutsedge plant response rating (purple nutsedge; [1]) | Nutsedge plant response rating (purple nutsedge; [2]) | Nutsedge plant response rating (purple nutsedge; [3]) | Nutsedge plant response rating (purple nutsedge; [4]) | Nutsedge plant response rating (purple nutsedge; [5]) | Nutsedge plant response rating (purple nutsedge; [6]) | Nutsedge plant response rating (purple nutsedge; [7]) | Plant response rating (0 to 10; 0 is no effect, 10 is complete control), Nutsedge (purple nutsedge; Rate 250 g/ha, Postemergence) | Rice plant response rating (rice; [8]) | Rice plant response rating (rice; [9]) | Rice plant response rating (rice; [10]) | Rice plant response rating (rice; [11]) | S. Flatsedge plant response rating (smallflower flatsedge; [8]) | S. Flatsedge plant response rating (smallflower flatsedge; [9]) | S. Flatsedge plant response rating (smallflower flatsedge; [10]) | S. Flatsedge plant response rating (smallflower flatsedge; [11]) | Barnyardgrass plant response rating (bamyardgrass; [8]) | Barnyardgrass plant response rating (bamyardgrass; [9]) | Barnyardgrass plant response rating (bamyardgrass; [10]) | Barnyardgrass plant response rating (bamyardgrass; [11])
